Assay results reported in EPA's ToxValDB 9.5.

System: Rattus norvegicus
Settings: oral
[1] = short-term, duration: 28 days, gavage, F, Sprague-Dawley, Clinical Observation: Salivation1000 (transient) + Body Weight Changes: Weight gain decrease + Hematology: Hgb decrease, Hct decrease, RBC …
[2] = short-term, duration: 28 days, gavage, M, Sprague-Dawley, Clinical Observation: Salivation1000 (transient) + Body Weight Changes: Weight gain decrease + Hematology: Hgb decrease, Hct decrease, RBC …
[3] = short-term, duration: 28 days, gavage, F, Sprague-Dawley
[4] = short-term, duration: 28 days, gavage, M, Sprague-Dawley
[5] = short-term, duration: 28 days, gavage, F, Sprague-Dawley, Absolute Organ Weight: Liver increase, Ovary increase, Thyroid increase + Relative Organ Weight: Ovary increase, Thyroid increase + …
[6] = short-term, duration: 28 days, gavage, M, Sprague-Dawley, Absolute Organ Weight: Liver increase, Ovary increase, Thyroid increase + Relative Organ Weight: Ovary increase, Thyroid increase + …
[7] = short-term, duration: 28 days, gavage, M/F, Clinical Observation: Salivation Soft stool Mucous stool + Body Weight Changes: Weight gain decrease + Food Consumption: decrease + …
[8] = subchronic, duration: 90 days, gavage, M/F, Wistar, Clinical Observation: Salivation + Body Weight Changes: Weight gain decrease + Food Consumption: decrease + Urinalysis: Ket increase, …

`CC(C)(C)OOC(C)(C)CCC(C)(C)OOC(C)(C)C` [2,5-Dimethyl-2,5-di-(tert-butylperoxy)hexane] was tested. Which LOAEL [1] did it give?
Its LOAEL is 200 mg/kg-day.

And the LOEL [1]?
The LOEL was 200 mg/kg-day.

What about the NOAEL [1] of the same compound?
The NOAEL was 40 mg/kg-day.

And the NOEL [1]?
The NOEL was 40 mg/kg-day.

What about the LOAEL [2] of the same compound?
Its LOAEL is 1000 mg/kg-day.

And the LOEL [2]?
Its LOEL is 200 mg/kg-day.

And the NOAEL [2]?
Its NOAEL is 200 mg/kg-day.

And the NOEL [2]?
Its NOEL is 40 mg/kg-day.

Which NOEL (short-term, duration: 28 days, gavage, F, Sprague-Dawley, Clinical Observation: Staggering gait Lacrimation Salivation + Body Weight Changes: Body weight gain decrease + Food Consumption: decrease…) does the source give for `Cc1ccc(C)c(N)c1` [2,5-Dimethylaniline] here?
Its NOEL is 12 mg/kg-day.

And the NOEL (short-term, duration: 28 days, gavage, M, Sprague-Dawley, Clinical Observation: Staggering gait Lacrimation Salivation + Body Weight Changes: Body weight gain decrease + Food Consumption: decrease…)?
Its NOEL is < 12 mg/kg-day.

`Cc1cccc(C)c1N` [2,6-Dimethylaniline] was tested. Which NOEL (subchronic, duration: 13 weeks, gavage, M/F, Fischer 344, Body Weight Changes: decrease + Hematology: WBC decrease, RBC decrease, Hgb decrease, Hct decrease, Lympho decrease + Blood Chemistry: K …) did it give?
Its NOEL is 20 mg/kg-day.

For `CCCCOCCOCCO` [2-(2-Butoxyethoxy)ethanol], which NOAEL (chronic, duration: 91 days, drinking water, M/F, Fischer 344, Body Weight Changes: Terminal body weight decrease + Food Consumption: decrease + Water Consumption: decrease + Hematology: RBC decrease, …) is on record?
Its NOAEL is 250 mg/kg-day.

For `CCCOCCOCCO` [2-(2-Propoxyethoxy)ethanol], which NOAEL (subchronic, duration: 6 weeks, gavage, M, COBS, CD:BR, Clinical Observation: Narcosis(initial period only) + Body Weight Changes: Terminal body weight decrease + Food Consumption: decrease(day 3 …) is on record?
Its NOAEL is 814 mg/kg-day.

For `Cc1ccc(O)c(-n2nc3ccccc3n2)c1` [2-(2H-Benzotriazol-2-yl)-4-methylphenol], which NOEL (subchronic, gavage, M, Sprague-Dawley, Urinalysis: Protein increase + Blood Chemistry: PL increase + Absolute Organ Weight: Liver increase + Relative Organ Weight: Liver increase…) is on record?
The NOEL was < 30 mg/kg-day.

For `Nc1cc(Cl)ccc1O` [2-Amino-4-chlorophenol], which NOEL (subchronic, gavage, M, Sprague-Dawley, Hematology: RBC decrease, Hgb decrease, MCHC decrease, Ret increase, Hct decrease + Absolute Organ Weight: Spleen increase + Relative Organ …) is on record?
Its NOEL is 50 mg/kg-day.

For `O=C(O)c1ccccc1Cl` [2-Chlorobenzoic acid], which NOEL (subchronic, gavage, M, Sprague-Dawley, Clinical Observation: Salivation + Body Weight Changes: decrease + Food Consumption: decrease + Hematology: RBC decrease, Hgb decrease, RET …) is on record?
Its NOEL is 40 mg/kg-day.

With `N#Cc1ccccc1Cl` [2-Chlorobenzonitrile] as the compound, how does the NOEL (subchronic, gavage, M, Sprague-Dawley, Urinalysis: Ketone body increase + Hematology: APTT increase + Blood Chemistry: Cho increase, PL increase, ALT increasegamma-GTP increase, …) read?
Its NOEL is 10 mg/kg-day.

`CCCCC(CC)C(=O)OOC(C)(C)C1CCCCC1` (stereo not drawn) [2-Cyclohexylpropan-2-yl 2-ethylhexaneperoxoate] was tested. Which NOEL (short-term, duration: 28 days, gavage, M/F, Clinical Observation: Salivation + Blood Chemistry: GLUC decrease, TP increase, CRN decrease, BIL increase, T-CHO increase + Absolute Organ …) did it give?
The NOEL was < 8 mg/kg-day.

Which NOEL (short-term, duration: 28 days, gavage, M/F, Deaths + Clinical Observation: Salivation Abnormal breathing + Relative Organ Weight: Kidney increase + Necropsy: Stomach- Raised, limiting…) does the source give for `C=C(C)C(=O)NCCN1CCNC1=O` [2-Methyl-N-[2-(2-oxoimidazolidin-1-yl)ethyl]prop-2-enamide] here?
Its NOEL is 200 mg/kg-day.

With `Cc1ncc[nH]1` [2-Methylimidazole] as the compound, how does the NOEL (subchronic, diet, M/F, Fischer 344, Body Weight Changes: decrease + Food Consumption: decrease + Hematology: Plt increase, Hct decrease, Hgb decrease, RBC decrease, Ret …) read?
The NOEL was < 60 mg/kg-day.

`OCCOc1ccccc1` [2-Phenoxyethanol] was tested. Which NOAEL (subchronic, duration: 90 days, gavage, M/F, Clinical Observation: Lack of grooming Lethargy Prostration + Body Weight Changes: decrease + Food Consumption: decrease + Water Consumption…) did it give?
The NOAEL was 80 mg/kg-day.

With `Cc1cc(-c2ccc(N)c(C)c2)ccc1N.Cl.Cl` [3,3'-Dimethylbenzidine dihydrochloride] as the compound, how does the NOEL (subchronic, duration: 13 weeks, drinking water, M/F, Fischer 344, Deaths + Clinical Observation: Crusty red exudate on the noses Thinness Stains on the fur + Body Weight Changes: decrease + Water …) read?
Its NOEL is < 45.6 mg/kg-day.

How did the NOEL (short-term, duration: 28 days, gavage, M/F, Clinical Observation: Lethargy Salivation + Body Weight Changes: body weight gain decrease + Urinalysis: Urine volume increase, pH decrease…) turn out when `COC(CC#N)OC` [3,3-Dimethoxypropiononitrile] was run?
Its NOEL is < 15 mg/kg-day.

What does the source list for `O=C(Nc1ccccc1)c1cc2ccccc2cc1O` [3-Hydroxy-2-naphthanilide]?
NOAEL [3]: 1000 mg/kg-day; NOEL [3]: 1000 mg/kg-day; NOAEL [4]: 1000 mg/kg-day; NOEL [4]: 1000 mg/kg-day; NOEL (subchronic, gavage, Sprague-Dawley): 1000 mg/kg-day

Which NOEL (short-term, duration: 28 days, gavage, M/F, Clinical Observation: Salivation + Blood Chemistry: IP increase, CRN increase, GPT increase, BIL increase, TP increase, T-CHO increase, …) does the source give for `CCCC1CCC(C2CCC(=O)CC2)CC1` (stereo not drawn) [4'-Propyl[1,1'-bi(cyclohexane)]-4-one] here?
Its NOEL is 8 mg/kg-day.

Which LOEL [5] does the source give for `CC(C)(C)c1cc(Cc2cc(C(C)(C)C)c(O)c(C(C)(C)C)c2)cc(C(C)(C)C)c1O` [4,4'-Methylenebis(2,6-di-t-butylphenol)] here?
Its LOEL is 200 mg/kg-day.

And the NOEL [5]?
Its NOEL is 40 mg/kg-day.

And the LOEL [6]?
Its LOEL is 1000 mg/kg-day.

And the NOEL [6]?
Its NOEL is 200 mg/kg-day.

With `CC(C)(c1ccc(O)cc1)c1cc(C(C)(C)c2ccc(O)cc2)c(O)cc1O` [4,6-Bis[2-(4-hydroxyphenyl)propan-2-yl]benzene-1,3-diol] as the compound, how does the NOAEL [7] read?
The NOAEL was 20 mg/kg-day.

What about the NOEL [7] of the same compound?
The NOEL was < 5 mg/kg-day.

Which NOEL (subchronic, duration: 13 weeks, gavage, M/F, Fischer 344, Deaths + Body Weight Changes: decrease + Hematology: WBC increase, Lympho increase, Hct decrease, Hgb decrease, Methemoglobin increase, RBC …) does the source give for `Cl.Nc1ccc(Cl)cc1` [4-Chloroaniline hydrochloride] here?
Its NOEL is < 5 mg/kg-day.

Which results are given for `O=Cc1ccc(Cl)cc1` [4-Chlorobenzaldehyde]?
NOEL (short-term, duration: 28 days, gavage, F, Sprague-Dawley, Clinical Observation: Salivation Tremor Soiled perigenital fur + Functional Observational Battery: Motor activity decrease + Body Weight …): 40 mg/kg-day; NOEL (short-term, duration: 28 days, gavage, M, Sprague-Dawley, Clinical Observation: Salivation Tremor Soiled perigenital fur + Functional Observational Battery: Motor activity decrease + Body Weight …): 200 mg/kg-day

Which NOEL (subchronic, duration: 13 weeks, gavage, M/F, Fischer 344, Deaths + Clinical Observation: Death + Body Weight Changes: decrease + Histopathology: Testis-Hypospermatogenesis Seminal vesicles-…) does the source give for `CCCCCCc1ccc(O)cc1O` [4-Hexylresorcinol] here?
Its NOEL is < 62.5 mg/kg-day.

For `CC1(C)CC(O)CC(C)(C)N1[O]` [4-Hydroxy-2,2,6,6-tetramethylpiperidin-1-yl)oxidanyl], which NOEL (short-term, duration: 28 days, gavage, M/F, Clinical Observation: Salivation + Hematology: Trend of Anemia + Absolute Organ Weight: Spleen increase, Liver increase + Histopathology: …) is on record?
The NOEL was 40 mg/kg-day.

With `O=C(O)c1ccc([N+](=O)[O-])cc1` [4-Nitrobenzoic acid] as the compound, how does the NOEL (subchronic, duration: 13 weeks, diet, F, Fischer 344, Body Weight Changes: decrease + Hematology: Methemoglobin increase, Hct decrease, ,Hgb decrease, RBC decrease, Heinz body increase + Blood …) read?
The NOEL was 40 mg/kg-day.

And the NOEL (subchronic, duration: 13 weeks, diet, M/F, Fischer 344, Body Weight Changes: decrease + Hematology: Methemoglobin increase, Hct decrease, ,Hgb decrease, RBC decrease, Heinz body increase + Blood …)?
Its NOEL is < 60.5 mg/kg-day.

Which NOEL (short-term, duration: 28 days, gavage, M/F, Sprague-Dawley, Clinical Observation: Salivation + Functional Observational Battery: Locomotor activity decrease + Food Consumption: decrease + Water …) does the source give for `O=[N+]([O-])c1ccc(CCl)cc1` [4-Nitrobenzyl chloride] here?
The NOEL was < 8 mg/kg-day.

How did the NOEL (short-term, duration: 28 days, gavage, M/F, Deaths + Clinical Observation: nasal discharge flatulence + Body Weight Changes: body weight gain decrease + Food Consumption: decrease + …) turn out when `C=CCOCCCCO` [4-allyloxy-1-butanol] was run?
The NOEL was 10 mg/kg-day.

What does the source list for `CC(=O)CCC=C(C)C` [6-Methyl-5-hepten-2-one]?
NOAEL [8]: 50 mg/kg-day; NOEL [8]: < 50 mg/kg-day

With `COc1c2occc2cc2ccc(=O)oc12` [8-Methoxypsoralen] as the compound, how does the NOEL (subchronic, duration: 13 weeks, gavage, M/F, Fischer 344, Deaths + Clinical Observation: Rough hair coat Hunched appearance + Body Weight Changes: decrease + Absolute Organ Weight: Liver increase + …) read?
Its NOEL is < 25 mg/kg-day.

`CNC[C@H](O)c1cccc(O)c1.Cl` [(-)-Phenylephrine hydrochloride] was tested. Which NOEL (subchronic, duration: 12 weeks, diet, M/F, Fischer 344, Deaths + Clinical Observation: Hyperexcitable + Body Weight Changes: decrease + Histopathology: Eye-Chronic keratitis Testis-Atrophy Seminal…) did it give?
Its NOEL is 240 mg/kg-day.

`C=CC(=O)OCc1c(Br)c(Br)c(Br)c(Br)c1Br` [(Pentabromophenyl)methyl acrylate] was tested. Which NOEL (short-term, duration: 28 days, gavage, M/F, Clinical Observation: Salivation increase, Hunchback position Staggering gait Lethargy Ptosis Emacation Flush in extremities + Urinalysis: S…) did it give?
The NOEL was < 15 mg/kg-day.

Which results are given for `CC(=O)Nc1ccc(O)cc1` [Acetaminophen]?
NOEL (short-term, duration: 19 days, gavage, F, Wistar, Deaths + Clinical Observation: Emaciation(dead animals) Hypothermia(dead animals) Bradypnea(dead animals) Locomotor activity decrease(dead …): 20 mg/kg-day; NOEL (short-term, duration: 19 days, gavage, M, Wistar, Deaths + Clinical Observation: Emaciation(dead animals) Hypothermia(dead animals) Bradypnea(dead animals) Locomotor activity decrease(dead …): 20 mg/kg-day; NOEL (subchronic, duration: 13 weeks, diet, M/F, Fischer 344, Deaths + Clinical Observation: Dark yellow urine + Body Weight Changes: decrease + Absolute Organ Weight: Right testis decrease, Thymus …): < 76.8 mg/kg-day

How did the NOEL (subchronic, duration: 13 weeks, gavage, M/F, Fischer 344, Deaths + Body Weight Changes: decrease + Histopathology: Liver-Basophilic cytoplasmic change Liver-Multifocal coagulative necrosis Liver-…) turn out when `C=CCOC(=O)CC(C)C` [Allyl isovalerate] was run?
The NOEL was 31 mg/kg-day.

`C=CCOC(=O)C(=C)C` [Allyl methacrylate] was tested. Which NOAEL (subchronic, gavage, M, Sprague-Dawley, Clinical Observation: Hypersalivation + Body Weight Changes: Weight gain decrease + Absolute Organ Weight: Adrenal decrease, Thymus increase…) did it give?
Its NOAEL is 15 mg/kg-day.

With `O=C1CCCCCCCCCCCN1` [Azacyclotridecan-2-one] as the compound, how does the NOAEL (subchronic, duration: 90 days, gavage, M/F, Sprague-Dawley, Deaths: None (There were dead animals caused by intubation error) + Blood Chemistry: K increase, TP increase, Alb increase + Histopathology…) read?
The NOAEL was 25 mg/kg-day.

`O=C(Cl)c1ccccc1Cl` [Benzoyl chloride, 2-chloro-] was tested. Which NOEL (subchronic, duration: 42 days, gavage, M, CD(SD), Clinical Observation: Salivation Soft/mucous stool Soiled perianal/perigenital fur + Body Weight Changes: Weight gain decrease + Food …) did it give?
The NOEL was 40 mg/kg-day.

How did the NOEL (subchronic, gavage, M, Sprague-Dawley, Blood Chemistry: T-Bil increase + Relative Organ Weight: Liver increase + Histopathology: Kidney-Globular accumulation of eosinophilic …) turn out when `c1ccc(COc2ccc3ccccc3c2)cc1` [Benzyl 2-naphthyl ether] was run?
The NOEL was < 100 mg/kg-day.

Which NOEL (subchronic, duration: 13 weeks, gavage, M/F, Fischer 344, Deaths + Clinical Observation: Died Staggering Labored breathing Blood around nose and mouth + Body Weight Changes: decrease + …) does the source give for `OCc1ccccc1` [Benzyl alcohol] here?
Its NOEL is 200 mg/kg-day.
